Series [1] in a line: Plasma pharmacokinetics of ensifentrine after administration of the composition to healthy patients. It counts as in vivo. The conditions noted are these: human, inhaled.
Series [2] is described as follows: Plasma pharmacokinetics of ensifentrine in COPD patients, popPK model simulation from trial samples. It counts as in vivo, human. On the procedure:
Plasma concentrations of ensifentrine for the assessment of pharmacokinetic (PK) parameters were measured using validated bioanalytical methods for ensifentrine in human plasma with LLOQ of 5 pg/mL.
Samples were taken on the following schedule: • Week 6: 1.0 h (±0.5 h) and 2.5 h (±0.5 h) (even sites) or 1.5 h and 4 h (±1 h) (odd sites); • Week 12: pre-dose (−0.5 h), 4 to 6 h, and 8 to 12 h (even sites) or 0.5 h (±0.25 h), 3 h (±0.5 h), and 6 to 8 h (odd sites); • Week 24: pre-dose (−0.5 h) and 1.5 h (even sites) or pre-dose (−0.5 h) and 1 h (±0.5 h) (odd sites)
Based on the samples taken during the trial, PK data was modelled for COPD patients with normal renal function. The final popPK model was used to predict parameter estimates in a virtual population of 50000 subjects (per covariate condition) for simulation of ensifentrine PK following nebulization of 3 mg in a population reflecting the population in the trial with normal renal function or mild renal impairment, or with moderate renal impairment. Uncertainty in fixed effects and covariance matrix parameters as well as residual variability were included in the simulations. The parameter uncertainty was accounted for by random resampling (without replacement) of 500 sets of parameter estimates from the bootstrap (750 replicates) in R to create 500 NONMEM simulation control streams. From each set of parameter estimates, the PK profiles for 100 subjects (for each covariate condition) were simulated with IV and IOV from the covariance matrix and residual error in NONMEM. Individual subject concentrations were simulated using NONMEM version 7.4.3, and PK parameters were calculated using R version 3.4.0.

Series [3] has as its system patients with moderate to severe COPD. Kind of series: Clinical study of nebulised ensifentrine 3 mg BID vs placebo, lung function (FEV1) in COPD. It counts as in vivo, human. The settings on record: 3 mg BID by nebuliser. On the procedure: A clinical study was conducted to determine the efficacy of ensifentrine in treating COPD compared with placebo. Ensifentrine was administered by nebuliser at a dose of 3 mg twice daily (BID) for 24 weeks. The study was a multi-centre, randomized, double-blind, parallel-group, placebo-controlled trial with around 800 patients and 5:3 randomization.
The study population included patients aged 40-80 years with moderate to severe COPD (FEV1 30%-70% p.n., FEV1/forced vital capacity (FVC) ratio <0.7, with mMRC 2). The randomization stratified (a) the use of stable background maintenance LAMA or LABA therapy use (approx. 50%. yes or no) and (b) cigarette smoking (current or former). Inhaled corticosteroid (ICS) maintenance therapy was permitted in up to 20% of patients under certain provisions.
The primary endpoint of the study was change from baseline in average FEV1 area under the curve (AUC)0-12 h post-dose at week 12. Secondary endpoints of the study included: peak FEV1 over 4 hours post-dose at Week 12; morning trough FEV1 at Week 12; and other endpoints including moderate/severe COPD exacerbations frequency over 24 Weeks.
Baseline FEV1 is the mean of the two measurements taken before study medication on the day of first dosing, i.e. <40 minutes and just prior to dosing, both pre-dose on day 1.
Average FEV1 AUC0-12 h is defined as area under the curve over 12 hours of the FEV1, divided by 12 hours.
The investigational product and placebo were provided in 2.5 mL unit dose format in an ampule and administered via a nebuliser. The formulation of the investigational product (ensifentrine suspension formulation comprising crystalline polymorph Form I of ensifentrine) and placebo are shown in Table 1 below.

[4] abbreviates: human, plasma, inhaled, 3 mg, patients with COPD.
[5] abbreviates: nebulization of 3 mg, COPD patients with normal renal function, popPK simulation in virtual population.

A word on the Cmax: it is the peak of the concentration-time curve. What is called AUC is concentration integrated over time. Low values mean low exposure, high ones high exposure. In series [1], `COc1cc2c(cc1OC)-c1c/c(=N\c3c(C)cc(C)cc3C)n(CCNC(N)=O)c(=O)n1CC2` [Ensifentrine, N-(2-{(2E)-9,10-dimethoxy-4-oxo-2-[(2,4,6-trimethylphenyl)imino]-6,7-dihydro-2H-pyrimido[6,1-a]isoquinolin-3(4H)-yl}ethyl)urea] showed a Cmax of 0.852 ng/mL. For the same compound, the AUC(0-inf) in series [1] (read-out: mean AUC0-∞) was found to be 5.93 ng·h/mL. For the same compound, the “systemic exposure in COPD patients compared with healthy patients” value in series [2] (COPD patients vs healthy patients) is listed as “lower systemic exposure”. Besides, in series [2] (setting [4]), the AUC was 2.45 ng·h/mL and the peak level (Cmax) was 0.522 ng/mL. In series [2] (setting [5]), the “AUC0-tau, Median (90% prediction interval)” value is 2450 (882-7500) pg/mL * h; the “Cmax, Median (90% prediction interval)” value is given as 522 (173-1330) pg/mL; the “tmax, Median” value is 1.0 h. In series [3] (Week 12), the “primary endpoint of average FEV1 (AUC)0-12 h at Week 12” value is “met”. For the same compound, the “Average FEV1 (AUC)0-12 h post-dose at Week 12: Change from Baseline (CFB) Least Squares Mean” value in series [3] (Week 12, n = 498, COPD patients) was determined as 48.2 mL. In series [3] (Week 12, vs placebo (n = 291)), the “Average FEV1 (AUC)0-12 h post-dose at Week 12: Placebo-corrected CFB LS Mean Diff.” value worked out at 93.9 mL. Besides, the “improvement in lung function in subgroups of COPD patients” value in series [3] (all subgroups) is “improvement in lung function with ensifentrine that was statistically significant”.
